Measurements reported in US20260137082A1 (priority 2021, published 2026).
≈ marks a conversion by molar mass, not a printed value. Where two headings read alike, the source gives them in different places.

Experiments:
Fusarium asiaticum = assay: microbe, parasite or virus in culture; conditions: 72 h, read-out: EC50 Value
Procedure: The fungicidal activity of cyclobutrifluram, fludioxonil (FDL), and mixtures thereof with various weight ratios (e.g., 10:1 and 1:50) of cyclobutrifluram and FDL was tested against Fusarium asiaticum and Fusarium pseudograminearum.
Specifically, according to the results of pre-experiment, the best concentration ranges for determination of the sensitivity of pathogens to cyclobutrifluram, FDL and mixtures thereof were respectively determined, and 5-7 concentration gradients were set to make the inhibition rate at the minimum concentration close to 10% and the inhibition rate at the highest concentration close to 90%. […]
Mycelial plugs in the edge of colony were prepared by hole puncher with a diameter of 5 mm. […] After cultured in an incubator at 25° C. for three days in darkness, the diameters of every mycelial colony on PDA plates were measured twice perpendicularly and then averaged. […]
The EC50 values of each tested agent and each mixture were calculated by the linear regression analysis between the probability value of the inhibition rate and the log value of the series of concentrations. The co-toxicity coefficient (CTC) of the mixtures was calculated and evaluated according to the Sun-YP method.

[1] = system: Fusarium graminearum (Gibberella zeae) strain K-6102; assay type: cell-based; conditions: solo fungicide, 4 days, 24° C., OD 620 nm
Gibberella fujikuroi = assay: microbe, parasite or virus in culture; assay type: cell-based; conditions: Fusarium fujikuroi, 72 h, read-out: EC50 Value

| SMILES | EC50 (Fusarium asiaticum) [µg/mL] | Efficacy (%, n = 5) ([1]; 0.1 ppm) [%] | Efficacy (%, n = 5) ([1]; 1 ppm) [%] | Efficacy (%, n = 5) ([1]; 10 ppm) [%] | EC50 (Gibberella fujikuroi) [µg/mL] |
| --- | --- | --- | --- | --- | --- |
| O=C(NC1CCC1c1ccc(Cl)cc1Cl)c1cccnc1C(F)(F)F (stereo in doubt) [cyclobutrifluram, N-[(1,2 cis)-2-(2,4-dichlorophenyl)cyclobutyl]-2-(trifluoromethyl)pyridine-3-carboxamide] | 0.0214 (≈ 0.055 µM) | 30.8 | 31.3 | 34.1 | 0.75 (≈ 1.93 µM) |
| N#CC1=CN=CC1c1cccc2c1OC(F)(F)O2 (stereo not shown) [FDL, 4-(2,2-difluoro-benzo[1,3]dioxol-4-yl)pyrrole-3-carbonitrile] | 0.0196 (≈ 0.079 µM) | 20.4 | 43.4 | 65.4 | 0.173 (≈ 0.697 µM) |
